Experiments:
Na^+—K^+ ATPase [1] = test: Na+-K+ ATPase activity of rat brain cortex plasma membrane (Pi liberated from ATP hydrolysis); type: biochemical; settings: for Na+-K+ ATPase activity (free Pi), MLB compared with ouabain: FIG. 2, various MLB or ouabain concentrations
From the text: (§1) First, Male Sprague-Dawley (NarII: SD) rats (3-month-old) were purchased from National Laboratory Animal Center (Nankang, Taipei) and raised under specific pathogen-free conditions. Animals were provided with rat chow (Rodent Laboratory Chow 5001, Purina, Mo.) and tap water throughout the studies. The rats received humane care in accordance with the guidelines of a guidebook for the care and use of laboratory animals. The animals were sacrificed by decapitation, and the brain and heart organs of the rats were removed immediately after complete exsanguination.
Next, the plasma membrane was isolated from the rat brain and heart at 4° C. The brain and heart homogenate were prepared respectively with homogenized plasma membrane in 10-20 volumes of […] sucrose solution containing 5.0 mM 4-(2-hydroxyethyl)-1-piperazineethanesulfonic acid (HEPES) and 1.0 mM EDTA, pH7.5. Then, the brain or heart homogenate was centrifuged at 1000×g for 10 min, and kept the resultant supernatant for further centrifuge at 17000×g for 30 min to obtain a crude plasma membrane fraction.
Then, the fraction was washed and suspended twice in 0.32 M sucrose HEPES-buffer, which was subjected to a discontinuous sucrose density gradient consisting of successive layers of […], and centrifuged at 63000×g for 1 hour. The plasma membrane was collected at the interface between […] sucrose to be further suspended in 0.32 M sucrose solution for enzyme assays within 2 hours.
Na^+—K^+ ATPase activity was determined by measuring the amount of inorganic phosphate (Pi) liberated from ATP hydrolysis.
First, commercial Na^+—K^+ ATPase from porcine cerebral cortex (Sigma, 0.3 units/mg) or a purified plasma membrane fraction incorporated into a reaction mixture of 1 ml containing 3 mM ATP, 5 mM MgCl2, 80 mM NaCl, 20 mM KCl, and 40 mM Tris-HCl, pH7.4, was prepared. The enzymatic reaction was terminated 15 min after Na^+—K^+ ATPase incorporation by adding 200 μl of 30% (WN) trichloroacetic acid.
After centrifugation at 6000 rpm for 15 min, supernatant of 500 μl measured the inorganic phosphate using spectrophotometric methods. Enzyme activity was expressed as μmol Pi liberated from ATP by 1 mg of Na^+—K^+ ATPase during 1 hour. Protein content was quantified using a Bradford protein assay kit (Sigma). For the observation of inhibitory effects on Na^+—K^+ ATPase activity, ouabain or MLB of various concentrations was incubated with commercial Na^+—K^+ ATPase or the purified plasma membrane fraction at 37° C. for 10 min prior to incorporation into the reaction mixture.

Na^+—K^+ ATPase [2] = test: Na+-K+ ATPase activity of rat myocardium (cardiac) cell membrane (Pi liberated from ATP hydrolysis); type: biochemical; settings: FIG. 5, various MLB concentrations
From the text: as §1
Next, the plasma membrane was isolated from the rat brain and heart at 4° C. The brain and heart homogenate were prepared respectively with homogenized plasma membrane in 10-20 volumes of […] sucrose solution containing 5.0 mM 4-(2-hydroxyethyl)-1-piperazineethanesulfonic acid (HEPES) and 1.0 mM EDTA, pH7.5. […]
Na^+—K^+ ATPase activity was determined by measuring the amount of inorganic phosphate (Pi) liberated from ATP hydrolysis. […]
After centrifugation at 6000 rpm for 15 min, supernatant of 500 μl measured the inorganic phosphate using spectrophotometric methods. Enzyme activity was expressed as μmol Pi liberated from ATP by 1 mg of Na^+—K^+ ATPase during 1 hour. Protein content was quantified using a Bradford protein assay kit (Sigma). […]

[3] = system: cerebral hypoxia caused by sodium nitrite; test: Rat survival test after sodium nitrite (cerebral hypoxia); type: in vivo; settings: FIG. 6, sodium nitrite 225 mg/kg
Experimental: Sodium nitrite will trigger the oxyhemoglobin converts into methemoglobin to cause the hypoxia and cell infract.
3-4 week old rats (about 20˜22 g) were randomly divided into three sample groups and one control group, and each group has 5 rats. […] After feeding for 7 days, one hour later of the final feeding, each rat was injected with sodium nitrite (225 mg/kg). Then count time on the spot to record the survival time of rats.

[4] = system: cerebral infarct after ischemia-reperfusion; test: Focal cerebral ischemia-reperfusion (CCA/MCA occlusion) infarct test in gerbils; type: in vivo, gerbil; settings: for cell infarct volume vs control: FIG. 7; for cell infarct size vs control: FIG. 8

O=C(/C=C/c1ccc(O)c2c1[C@H](C(=O)O[C@H](Cc1ccc(O)c(O)c1)C(=O)[O-])[C@@H](c1ccc(O)c(O)c1)O2)O[C@H](Cc1ccc(O)c(O)c1)C(=O)[O-].[Mg+2] [MLB, magnesium lithospermate B]
Na+-K+ ATPase activity (inorganic phosphate liberated from ATP hydrolysis) with increasing concentration (Na^+—K^+ ATPase [1]; FIG. 1, rat brain cortex, various MLB concentrations, 37° C. 10 min preincubation): the measured free inorganic phosphate (Pi) decreases with increased MLB concentration | Na+-K+ ATPase activity (free Pi), MLB compared with ouabain (Na^+—K^+ ATPase [1]; rat brain cortex): the inhibitory behavior of MLB is consistent with the ouabain | Na+-K+ ATPase activity (free Pi) of brain cortex cell membrane (Na^+—K^+ ATPase [1]; FIG. 4, rat brain cortex cell membrane, various MLB concentrations): the MLB is able to inhibit the Na^+—K^+ ATPase activity of the cortex cell membrane | Na+-K+ ATPase activity (free Pi) of cardiac cell membrane (Na^+—K^+ ATPase [2]): MLB is able to inhibit the Na^+—K^+ ATPase activity of cardiac cell membranes | survival rate vs control after sodium nitrite ([3]; MLB 3 mg/Kg for 7 days): significant (p<0.05) increase (two folds) | survival rate vs control after sodium nitrite ([3]; MLB 9 mg/Kg for 7 days): significant (p<0.05) different from the control group | survival rate vs control after sodium nitrite ([3]; MLB 18 mg/Kg for 7 days): significant (p<0.05) different from the control group | cell infarct volume vs control ([4]; MLB 1.5 mg/Kg intraperitoneally 30 min before reperfusion): effective repression of cell infarct | cell infarct volume vs control ([4]; MLB 3 mg/Kg intraperitoneally 30 min before reperfusion): significant (p<0.01) difference from the control group | cell infarct size vs control ([4]; MLB 0.3 mg/Kg forced oral fed 30 min after reperfusion): effective repression of cell infarct | cell infarct size vs control ([4]; MLB 3 mg/Kg forced oral fed 30 min after reperfusion): significant (p<0.01) difference from the control group

C[C@@H]1O[C@@H](O[C@H]2C[C@@H](O)[C@]3(CO)[C@H]4[C@H](O)C[C@]5(C)[C@@H](C6=CC(=O)OC6)CC[C@]5(O)[C@@H]4CC[C@]3(O)C2)[C@H](O)[C@H](O)[C@H]1O [ouabain, reference compound]
Na+-K+ ATPase activity (free Pi), MLB compared with ouabain (Na^+—K^+ ATPase [1]; rat brain cortex): the amount of free inorganic phosphate (Pi) is dependent on the raised inhibitor (MLB or ouabain) dosage

— patent US20070293459A1, “Method for Inhibiting Cellular Na+-K+ ATPase Activity” (JASON LIFE TECH INC. LTD., priority 2006, published 2007)
